We go through 14 molecules from patent publication US20200061076A1, “METHODS OF TREATING LEUKODYSTROPHIES” (Ramot at Tel-Aviv University Ltd., priority 2017, published 2020).

Data set [1] has as its system Mut MEFs. Description: Cell survival assay, Crystal violet staining, Mut MEFs. It counts as cell-based, mouse. Particulars: for Survival (%) ± SEM Mut MEFs: 24 hours, untreated cells set to 100%. On the procedure: Cells were seeded on 96-wells plate at a density of 5000 cells per well. Astrocytes were seeded following coating with 0.001% PDL.
Data set [2] has as its system Mut MEFs. Description: Survival under Tunicamycin-induced ER stress, Crystal Violet, MEFs. Particulars: Mut MEFs, 30 μM, 50 ng/ml Tunicamycin 22 hours (FIG. 20B).
Experimental: Mut MEFs were treated or not for 24 hours with the indicated concentrations of the indicated Sig-1R binders in the presence of 0.1 μg/ml Tunicamycin (Tun) during the last 22 hours. Following, the cells were washed, fixated and stained with Crystal Violet (CV) followed by measurement of absorbance at 570 nm. Shown is average % of CV staining relative to cells not treated with tunicamycin nor Sig-1R binder ±SEM of 3 independent experiments. *p<0.03.
Following, the cells were washed, fixated and stained with Crystal Violet and absorbance at 570 nm was measured. Data is presented relative to cells of the corresponding genotype not treated with p8G5 nor Tunicamycin. Shown is average % of CV staining ±SEM of 3 independent experiments.
Mut MEFs were treated or not for 24 hours with 10, 20 or 30 μM of the indicated Sig-1R binders in the presence of 50 ng/ml Tunicamycin (Tun) during the last 22 hours. Following, the cells were washed, fixated and stained with Crystal Violet (CV) followed by measurement of absorbance at 570 nm. Shown is % of CV staining relative to cells not treated with tunicamycin nor Sig-1R binder ±SEM of 3 independent experiments, *p<0.05.
Mut MEFs were incubated or not with the indicated concentrations of the indicated compounds for 2 hours followed by addition of 50 ng/ml Tunicamycin (Tun) for additional 22 hours, stained with Crystal Violet followed by measurement of absorbance at 570 nm. Shown is average normalized to Tun-treated cells without any compound ±SEM of 3 independent experiments. * not significant; ** p<0.02; *** all values p<0.04.
The subject of data set [3] is Hedgehog signaling pathway. Description: Luciferase activity assay in Shh-LIGHT2 cells (Gli1-controlled Firefly / constitutive Renilla). Particulars: for Firefly/Renilla luciferase expression (Hedgehog activation): absence of SAG, 24 hours (FIG. 11A); for SAG-induced HH activity (Firefly/Renilla luciferase): presence of SAG at 50 nM, 24 hours (FIG. 11B). The data set is classed as cell-based. The procedure:
Following lysis, luminescence was measured using the Dual Luciferase assay kit (Promega) followed by Firefly/Renilla luciferase ratio calculation for each treatment. Shown is average Firefly/Renilla luciferase activity ±SD of 3 independent experiments. *p<0.04. […] RNA was extracted from brains of P18 and P21 Mut and WT mice. cDNA was prepared by reverse transcription and subjected to qPCR using primers specific to Gli1 and GAPDH (SEQ ID NOs: 1-2 and 3-4, respectively). Relative quantity (RQ) was calculated by the ΔΔCt method. * p<0.02 [vs control (FIG. 11A) or vs SAG treated cells (FIG. 11B)].
Shh-LIGHT2 cells were seeded at a density of 10,000 cells per well in a 96-wells plate in growing medium. 24 hours post-plating the cells were incubated for additional 24 hours with the tested compounds in low serum media (0.5%) without G418 and Zeocin. Following lysis, Firefly and Renilla luminescence was measured using the Dual Luciferase assay kit (Promega) and a Veritas microplate luminometer (Turner Biosystems).
To test if p8C10 (H5), p8G7 (H9) and p9E6 (H15) compounds that were identified in the screen indeed affect Hedgehog signaling, SHH-lightII cells which stably express an inducible Firefly-Luciferase reporter gene under the control of Gli1 (a read-out of Hedgehog activation) and constitutive Renilla-Luciferase for normalization purposes (Taipale et al. 2000) were used. […] Therefore, p9E6 was identified as an agonist. SHH activation is required for the first steps of oligodendrocyte differentiation, while a subsequent decrease in Hedgehog activity is needed for complete differentiation and myelin production (Bouslama-Oueghlani et al. 2012) and re-myelination (Samanta et al. 2015).

Data set [4] has as its system Mut MEFs. Briefly: JC1 staining of intact and damaged mitochondria (mitochondrial membrane potential). The data set is classed as cell-based, mouse. Particulars: Mut MEFs, 10 μM; for effect on mitochondrial health (JC1, intact and damaged mitochondria): 24 hours (FIG. 14C). The procedure: Mut MEFs were treated or not for 6 hours with the indicated concentrations of p8G5 (blue), pre084 (purple), or NE-100 (yellow), washed and stained with Hoechst and JC1 for 30 minutes followed by image acquisition using In-Cell-Analyzer-2000. Shown is the % of red/green JC1 integrated intensity per cell relative to that in untreated WT cells of 2-4 independent experiments.
Following, the cells were washed, stained with Hoechst and JC-1 fluorescent dyes for 30 minutes, and subjected to image acquisition using In-Cell-Analyzer-2000. Shown is cellular content of damaged mitochondria (JC1 green channel, red bars), intact mitochondria (JC1 red channel, green bars) and damaged to intact mitochondria ratio (blue bars). Values of control (vehicle treated) cells was set to 100%.
Mut MEFs were treated with the indicated compounds at 10 μM for 24 hours followed by staining with fluorogenic dyes and image-based single-cell analysis. Shown is average effect on ROS level from at least 3-independent experiments ±SEM. […] Mut MEFs were incubated or not for 24 hours with 10 μM of the indicated compound, washed and stained with Crystal Violet. […] Mut MEFs were incubated or not for 24 hours with 10 μM of the indicated compound, washed and stained with JC1 and Hoechst followed by image-based single-cell analysis. Values of untreated cells were set as 100%. Shown is average of at least 3 independent experiments for each parameter compared to its matching control ±SEM. * p<0.05. Putative targets are indicated.
Mut MEFs were incubated or not for 24 hours with 10 μM of the indicated compounds, washed and stained with Hoechst and JC1 followed by image-based single-cell analysis. […] Mut MEFs were incubated or not with the indicated concentrations of the indicated compounds for 2 hours followed by addition of 50 ng/ml Tunicamycin (Tun) for additional 22 hours, stained with Crystal Violet followed by measurement of absorbance at 570 nm.
MEFs were seeded on 1% gelatin-coated 96-wells plate at a density of 5000 cells per well. 24 hours post-plating the cells were incubated with the tested compounds for additional 24 hours. Several DMSO-treated cells (control) were included in each plate at different locations. Following, the cells were stained by addition of fluorogenic dyes for further 30 minutes incubation at 37° C. […] CellROX was used together with Hoechst and CFSE; JC1 was used together with Hoechst. Cells were washed with Hank's balanced salt solution (HBSS) which was used for images acquisition using IN Cell Analyzer 2000 (GE Healthcare, Pitsburgh, Pa., USA). IN Cell Developer Toolbox 1.9.1 software (GE Healthcare) was used for analysis which included cells segmentation using Hoechst and/or CFSE signals. For analysis of JC1 staining, integrated intensity of green and red emissions were used for detection of damaged and intact mitochondria, respectively.

For `Cc1cccc(OCCCCCCN2CCOCC2)c1` [Hit H8-3, 4-[6-(3-methylphenoxy)hexyl]morpholine], the results for the “Survival (%) ± SEM Mut MEFs” value in the data set on Mut MEFs [1] (10 μM), with Mut MEFs [1] (20 μM) and in the data set with Mut MEFs [1] (30 μM) were 100 ± 7.2%, 96 ± 4.1% and 88 ± 4.5%, respectively.

In the case of `Cc1ccc(OCCCCCN2CCOCC2)cc1C` [Hit H8-2, 4-[5-(3,4-dimethylphenoxy)pentyl]morpholine], the “Survival (%) ± SEM Mut MEFs” value with Mut MEFs [1] (10 μM) came to 92 ± 4.2%; with Mut MEFs [1] (20 μM) it was 94 ± 8.8%; in the data set with Mut MEFs [1] (30 μM) it was 95 ± 13.1%. For the same molecule, the “cell survival following Tun-induced cell death” value with Mut MEFs [2] is on record as “most potent effect”.

Take `Cc1cc(C)cc(OCCCCCN2CCOCC2)c1` [Hit H8-1, 4-[5-(3,5-dimethylphenoxy)pentyl]morpholine]: the “Survival (%) ± SEM Mut MEFs” value is 104 ± 2.7% with Mut MEFs [1] (10 μM), 103 ± 4.7% with Mut MEFs [1] (20 μM) and 97 ± 3.9% in the data set with Mut MEFs [1] (30 μM).

Turning to `COc1ccc(OC)c(N=Nc2nc3ccccc3n2C)c1` [Hit H16, 2-[(2,5-dimethoxyphenyl)diazenyl]-1-methyl-1H-benzimidazole], in the data set on Mut MEFs [1] (Mut MEFs, 10 μM, 24 hours (FIG. 14B)), the “cell viability / toxicity (crystal violet)” value is “significant decrease in cell viability”.

In the case of `C=CCn1c(-c2cc(OC)c(OC)c(OC)c2)nc2ccccc21` [Hit H5, 1-allyl-2-(3,4,5-trimethoxyphenyl)-1H-benzimidazole], in data set [3], the “Firefly/Renilla luciferase expression (Hedgehog activation)” value (from here on “Firefly/Renilla luciferase expression”) is “not able to activate the pathway” and the “SAG-induced HH activity (Firefly/Renilla luciferase)” value was “inhibited the SAG-induced HH activity”.

On to `Cc1cc(-c2ccccc2)nc2cc(C(=O)N3C(C)CCCC3C)nn12` (centres unmarked) [Hit H17, 2-[(2,6-dimethyl-1-piperidinyl)carbonyl]-7-methyl-5-phenylpyrazolo[1,5-a]pyrimidine], for which, in the data set on Mut MEFs [4], the “effect on mitochondrial health (JC1, intact and damaged mitochondria)” value was “significant beneficial effect on mitochondrial health”.

`CNC1CCC(N(Cc2cccc(-c3ccncc3)c2)C(=O)c2sc3ccccc3c2Cl)CC1` (centres unmarked) [SAG, reference compound]: the “Survival (%) ± SEM Mut MEFs” value with Mut MEFs [1] (0.01 μM) amounted to 98 ± 2.1%; with Mut MEFs [1] (0.05 μM), 92 ± 3.2%; in the data set with Mut MEFs [1] (0.1 μM) it was 95 ± 2.1%; in the data set with Mut MEFs [1] (1 μM), 68 ± 2.7%.

For the molecule `Clc1cccc(OCCCCCN2CCOCC2)c1` [Hit H8-7, 4-[5-(3-chlorophenoxy)pentyl]morpholine], the “Survival (%) ± SEM Mut MEFs” value with Mut MEFs [1] (10 μM) amounted to 98 ± 5.1%; in the data set with Mut MEFs [1] (20 μM), 91 ± 4.7%; with Mut MEFs [1] (30 μM), 88 ± 9.7%. For the same molecule, the “mitochondrial health, damaged/intact organelle ratio (JC1)” value in the data set on Mut MEFs [4] (24 hours (FIG. 20A)) is “at the top of the list”. In the data set on Mut MEFs [2], the “cell survival following Tun-induced cell death” value is reported as “most potent effect”.

For `Cc1ccc(OCCCCN2CCOCC2)cc1C` [Hit H8-5, 4-[4-(3,4-dimethylphenoxy)butyl]morpholine], the “Survival (%) ± SEM Mut MEFs” value amounted to 92 ± 1.7% in the data set with Mut MEFs [1] (10 μM), 100 ± 4.4% in the data set on Mut MEFs [1] (20 μM) and 98 ± 13.8% in the data set on Mut MEFs [1] (30 μM). Moreover, the “cell survival following Tun-induced cell death” value with Mut MEFs [2] is “most potent effect”.

Regarding `COc1cccc(OCCCCCN2CCOCC2)c1` [Hit H8-6, 4-[5-(3-methoxyphenoxy)pentyl]morpholine], the “Survival (%) ± SEM Mut MEFs” value in the data set on Mut MEFs [1] (10 μM) is reported as 97 ± 5.1%; in the data set on Mut MEFs [1] (20 μM), 92 ± 1.1%; in the data set on Mut MEFs [1] (30 μM), 93 ± 5.2%. The “cell survival following Tun-induced cell death” value with Mut MEFs [2] was “most potent effect”.

For the molecule `O=C(Cc1ccccc1)N1CCN(c2ccccc2F)CC1` [Hit H9, 1-(2-fluorophenyl)-4-(phenylacetyl)piperazine], in data set [3], the “Firefly/Renilla luciferase expression” value is given as “not able to activate the pathway” and the “SAG-induced HH activity (Firefly/Renilla luciferase)” value was “inhibited the SAG-induced HH activity”.

In the case of `CN1CCN(CCCCCOc2ccccc2F)CC1` [Hit H8-8, 1-[5-(2-fluorophenoxy)pentyl]-4-methylpiperazine], the “Survival (%) ± SEM Mut MEFs” value is 101 ± 5.6% in the data set with Mut MEFs [1] (10 μM), 99 ± 11% in the data set on Mut MEFs [1] (20 μM) and 90 ± 3.5% in the data set on Mut MEFs [1] (30 μM).

For `Cc1cccc(OCCCCN2CCOCC2)c1` [Hit H8-4, 4-[4-(3-methylphenoxy)butyl]morpholine], the “Survival (%) ± SEM Mut MEFs” value in the data set with Mut MEFs [1] (10 μM) came out at 92 ± 8.5%; in the data set on Mut MEFs [1] (20 μM), 95 ± 4.2%; in the data set with Mut MEFs [1] (30 μM), 98 ± 5.4%.

Regarding `C=CCn1c(C=Cc2ccccc2)nc2ccccc21` [Hit H15, 1-allyl-2-(2-phenylvinyl)-1H-benzimidazole], the “Firefly/Renilla luciferase expression” value in data set [3] is “able to activate the Hedgehog signaling pathway”. Moreover, in the data set on Mut MEFs [4], the “effect on mitochondrial health (JC1, intact and damaged mitochondria)” value was “significant beneficial effect on mitochondrial health”.
